Measured values: patent US11000033B2, “Ketone or oxime compound, and herbicide” (NISSAN CHEMICAL CORPORATION, priority 2014, dated 2021)

Key:
Type in all cases: in vivo
[1] = test system: Echinochloa oryzacola Vasing.; test: Test Example 2: herbicidal activity, application during weed generation in submerged conditions (symbol A); conditions: Table 23; application herbicide amount 320 g/ha; grade 0-5 by criteria of Test Example 1
Summary of the method: (§1)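 Read-out: herbicidal effect on each species rated on a visual scale 3 weeks after treatment. Plants were raised together from seed in flooded alluvial soil (4 cm water) at 25° C. to 30° C. and treated at one to two leaves by water-surface application of diluted emulsion.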

[2] = test system: directly sowed rice plant; test: Test Example 3: effect on crop by foliage application, Wagner pot (symbol b); conditions: application herbicide amount 320 g/ha
Summary of the method: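 Plants are raised from seed in flooded paddy conditions: water stands 0.1–0.5 cm over alluvial soil, and the pot is kept in a greenhouse at 25–30 °C. Species sown are barnyardgrass (E. crus-galli var. crus-galli), Leptochloa chinensis, Cyperus difformis and rice.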

[3] = test system: Abutilon theophrasti; test: Test Example 4: herbicidal effect by soil treatment (symbol M); conditions: application herbicide amount 320 g/ha
Summary of the method: (§2)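 Seeds were sown in sterilized diluvial soil, covered with about 1.5 cm of soil, and the soil surface was sprayed with a water-diluted emulsion of the compound at a predetermined rate. Plants grew in a greenhouse at 25° C. to 30° C.; effects were scored visually 3 weeks after application.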

[4] = test system: Echinochloa crus-galli var. crus-galli; test: Test Example 4: herbicidal effect by soil treatment (symbol H); conditions: application herbicide amount 320 g/ha
Summary of the method: as §2

[5] = test system: Stellaria media; test: Test Example 5: herbicidal effect by foliage application, plastic box (symbol P); conditions: 320 g/ha, 3 weeks after application
Summary of the method: (§3)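 Leaf-applied emulsion, water-diluted to a preset herbicide dose, on two-week-old seedlings raised in a 25° C. to 30° C. greenhouse; injury rated at 3 weeks using earlier criteria.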

[6] = test system: Digitaria ciliaris; test: Test Example 5: herbicidal effect by foliage application, plastic box (symbol F); conditions: 320 g/ha, 3 weeks after application
Summary of the method: as §3

[7] = test system: Echinochloa oryzacola Vasing.; test: Test Example 1: herbicidal activity, application before weed generation in submerged conditions (symbol A); conditions: application herbicide amount 320 g/ha
Summary of the method: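 Greenhouse growth at 25–30 °C lasted 3 weeks after treatment, when each weed was graded 0–5 by herbicidal ratio. Treatment was a diluted emulsion applied to the water surface of 4 cm-submerged alluvial soil on the sowing day.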

[8] = test system: Monochoria vaginalis; test: Test Example 2: herbicidal activity, application during weed generation in submerged conditions (symbol C); conditions: Table 23; application herbicide amount 320 g/ha; grade 0-5 by criteria of Test Example 1
Summary of the method: as §1

[9] = test system: Cyperus difformis; test: Test Example 3: herbicidal effect by foliage application, Wagner pot (symbol E); conditions: application herbicide amount 320 g/ha
Summary of the method: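 Scoring took place 3 weeks after application, using fixed criteria. Plants had been raised from seed for 14 days at 25 to 30 °C in submerged alluvial soil before a diluted emulsion of the test compound was sprayed uniformly on the leaves.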

[10] = test system: Apera spica-venti; test: Test Example 5: herbicidal effect by foliage application, plastic box (symbol L); conditions: 320 g/ha, 3 weeks after application
Summary of the method: as §3

[11] = test system: Avena fatua; test: Test Example 5: herbicidal effect by foliage application, plastic box (symbol I); conditions: 320 g/ha, 3 weeks after application
Summary of the method: as §3

[12] = test system: Stellaria media; test: Test Example 4: herbicidal effect by soil treatment (symbol P); conditions: application herbicide amount 320 g/ha
Summary of the method: as §2

[13] = test system: rice plant; test: Test Example 5: effect on crop by foliage application, plastic box (symbol b); conditions: 320 g/ha, 3 weeks after application
Summary of the method: (§4)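 Greenhouse culture at 25° C. to 30° C. followed spot-like sowing into sterilized diluvial soil, with seed covered by roughly 1.5 cm of soil.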

[14] = test system: rapeseed; test: Test Example 5: effect on crop by foliage application, plastic box (symbol g); conditions: 320 g/ha, 3 weeks after application
Summary of the method: as §4

Compound	Herbicidal effect grade, A: Echinochloa oryzacola Vasing. [1]	effect on crop b (directly sowed rice plant), grade 0-5 [2]	M: Abutilon theophrasti, herbicidal effect grade [3]	H: Echinochloa crus-galli var. crus-galli, herbicidal effect grade [4]	P: Stellaria media, herbicidal effect grade [5]	F: Digitaria ciliaris, herbicidal effect grade [6]	Herbicidal effect grade, A: Echinochloa oryzacola Vasing. [7]	Herbicidal effect grade, C: Monochoria vaginalis [8]	herbicidal effect on E, grade 0-5 [9]	L: Apera spica-venti, herbicidal effect grade [10]	I: Avena fatua, herbicidal effect grade [11]	P: Stellaria media, herbicidal effect grade [12]	b: directly sowed rice plant, effect on crop grade [13]	g: rapeseed, effect on crop grade [14]
CCOC(=O)C(C(=O)C(C)C)C1CC(O)=C(c2c(C)cc(C)cc2C)C1=O (stereo not drawn) [2-009]	0 (Herbicidal ratio of 5% or lower (almost no effect))	1 (Herbicidal ratio of 5% or higher and lower than 20%)	0 (Herbicidal ratio of 5% or lower (almost no effect))	1 (Herbicidal ratio of 5% or higher and lower than 20%)	0 (Herbicidal ratio of 5% or lower (almost no effect))	0 (Herbicidal ratio of 5% or lower (almost no effect))	0 (Herbicidal ratio of 5% or lower (almost no effect))	0 (Herbicidal ratio of 5% or lower (almost no effect))	0 (Herbicidal ratio of 5% or lower (almost no effect))	0 (Herbicidal ratio of 5% or lower (almost no effect))	0 (Herbicidal ratio of 5% or lower (almost no effect))	0 (Herbicidal ratio of 5% or lower (almost no effect))	4 (Herbicidal ratio of 70% or higher and lower than 90%)	0 (Herbicidal ratio of 5% or lower (almost no effect))
CON=C(C)C1CC(O)=C(c2c(C)cc(C)cc2C)C1=O (mixture of isomers) [3-002]	0 (Herbicidal ratio of 5% or lower (almost no effect))	0 (Herbicidal ratio of 5% or lower (almost no effect))	0 (Herbicidal ratio of 5% or lower (almost no effect))	0 (Herbicidal ratio of 5% or lower (almost no effect))	0 (Herbicidal ratio of 5% or lower (almost no effect))	0 (Herbicidal ratio of 5% or lower (almost no effect))	0 (Herbicidal ratio of 5% or lower (almost no effect))	0 (Herbicidal ratio of 5% or lower (almost no effect))	0 (Herbicidal ratio of 5% or lower (almost no effect))	0 (Herbicidal ratio of 5% or lower (almost no effect))	0 (Herbicidal ratio of 5% or lower (almost no effect))	0 (Herbicidal ratio of 5% or lower (almost no effect))	3 (Herbicidal ratio of 40% or higher and lower than 70%)	0 (Herbicidal ratio of 5% or lower (almost no effect))
Cc1cc(C)c(C2=C(O)CC(CC(=O)C3CCCC3)C2=O)c(C)c1 (stereo not drawn) [2-028]	3 (Herbicidal ratio of 40% or higher and lower than 70%)	5 (Herbicidal ratio of 90% or more (almost completely withered))	1 (Herbicidal ratio of 5% or higher and lower than 20%)	1 (Herbicidal ratio of 5% or higher and lower than 20%)	0 (Herbicidal ratio of 5% or lower (almost no effect))	2 (Herbicidal ratio of 20% or higher and lower than 40%)	3 (Herbicidal ratio of 40% or higher and lower than 70%)	0 (Herbicidal ratio of 5% or lower (almost no effect))	4 (Herbicidal ratio of 70% or higher and lower than 90%)	1 (Herbicidal ratio of 5% or higher and lower than 20%)	0 (Herbicidal ratio of 5% or lower (almost no effect))	0 (Herbicidal ratio of 5% or lower (almost no effect))	5 (Herbicidal ratio of 90% or more (almost completely withered))	3 (Herbicidal ratio of 40% or higher and lower than 70%)
CCc1cc(C#C[Si](C)(C)C)cc(C)c1C1=C(O)CC(CC(C)=NOC)C1=O (mixture of isomers) [6-008]	5 (Herbicidal ratio of 90% or more (almost completely withered))	5 (Herbicidal ratio of 90% or more (almost completely withered))	0 (Herbicidal ratio of 5% or lower (almost no effect))	5 (Herbicidal ratio of 90% or more (almost completely withered))	0 (Herbicidal ratio of 5% or lower (almost no effect))	0 (Herbicidal ratio of 5% or lower (almost no effect))	5 (Herbicidal ratio of 90% or more (almost completely withered))	5 (Herbicidal ratio of 90% or more (almost completely withered))	5 (Herbicidal ratio of 90% or more (almost completely withered))	3 (Herbicidal ratio of 40% or higher and lower than 70%)	0 (Herbicidal ratio of 5% or lower (almost no effect))	0 (Herbicidal ratio of 5% or lower (almost no effect))	3 (Herbicidal ratio of 40% or higher and lower than 70%)	0 (Herbicidal ratio of 5% or lower (almost no effect))
Cc1cc(C)c(C2=C(O)CC(CC(=O)Cc3ccccc3)C2=O)c(C)c1 (stereo not drawn) [2-015]	0 (Herbicidal ratio of 5% or lower (almost no effect))	4 (Herbicidal ratio of 70% or higher and lower than 90%)	0 (Herbicidal ratio of 5% or lower (almost no effect))	1 (Herbicidal ratio of 5% or higher and lower than 20%)	0 (Herbicidal ratio of 5% or lower (almost no effect))	5 (Herbicidal ratio of 90% or more (almost completely withered))	0 (Herbicidal ratio of 5% or lower (almost no effect))	0 (Herbicidal ratio of 5% or lower (almost no effect))	0 (Herbicidal ratio of 5% or lower (almost no effect))	3 (Herbicidal ratio of 40% or higher and lower than 70%)	4 (Herbicidal ratio of 70% or higher and lower than 90%)	0 (Herbicidal ratio of 5% or lower (almost no effect))	5 (Herbicidal ratio of 90% or more (almost completely withered))	4 (Herbicidal ratio of 70% or higher and lower than 90%)
CON=C(C)CC1CC(O)=C(c2c(C)cc(-c3ccccc3)cc2C)C1=O (stereo not drawn) [6-015]	5 (Herbicidal ratio of 90% or more (almost completely withered))	5 (Herbicidal ratio of 90% or more (almost completely withered))	3 (Herbicidal ratio of 40% or higher and lower than 70%)	5 (Herbicidal ratio of 90% or more (almost completely withered))	3 (Herbicidal ratio of 40% or higher and lower than 70%)	5 (Herbicidal ratio of 90% or more (almost completely withered))	5 (Herbicidal ratio of 90% or more (almost completely withered))	5 (Herbicidal ratio of 90% or more (almost completely withered))	5 (Herbicidal ratio of 90% or more (almost completely withered))	5 (Herbicidal ratio of 90% or more (almost completely withered))	4 (Herbicidal ratio of 70% or higher and lower than 90%)	2 (Herbicidal ratio of 20% or higher and lower than 40%)	5 (Herbicidal ratio of 90% or more (almost completely withered))	4 (Herbicidal ratio of 70% or higher and lower than 90%)
